{"source": "patent US20160113890A1", "about": "“COMPOSITION FOR STIMULATING NEOVASCULARIZATION AT A SITE IN A SUBJECT COMPRISING DAPSONE AND USE THEREOF” (Samsung Electronics Co., Ltd., priority 2014, published 2016)", "key": {"C57BL/6 mice [1]": {"system": "C57BL/6 mice", "test": "Immunohistochemical assay (anti-PECAM-1) on mouse ear skin whole-mount", "format": "in vivo", "experimental": "(§1) C57BL/6 mice (hereinafter, also referred to as “B6”) at ages of 7 months and 24 months (female n=18, male n=12, Korean Basic Science Institute) were maintained according to the guideline of the Laboratory Animal Research Center of Sungkyunkwan University School of Medicine. The mice were allowed to have free access to water and feed. Each group of mice (n=5) drank 0.0, 0.5, or 2.0 mg/kg/day of dapsone (available from Tai Guk Pharm. Co.) for 3 months.\nAfter 3 months, ear skin from both ears, trachea, both retinas, both kidneys, and pancreas were obtained from a mouse selected from each group of mice. In order to obtain these organs, the mouse was anesthetized by intraperitoneal injection of 100 mg/kg of […] (Entobal®) based on the weight of the mouse, […] of 1% paraformaldehyde was flowed through the heart to remove the blood in the body of the mouse. The organs were surgically obtained, and tissue from each of the organs was fixed in 4% of paraformaldehyde for 24 hours to prepare a frozen section having a thickness of 10 um. Immunofluorescence staining using anti-PECAM-1 antibody was performed on a sample of the frozen section. For the immunofluorescence staining, the sample was blocked in a solution containing 5% donkey serum in phosphate buffered solution (PBS) containing 0.3% Triton-X 100 (0.3% PBST) for 1 hour. The anti-PECAM-1 antibody produced from American hamster was added to the solution to allow a primary reaction with antigen of the tissue at 4° C. for 12 hours. The sample was washed 6 times for 10 minutes with 0.3% PBS-T, and an anti-American hamster-Alexa594 antibody was added to 0.3 PBS-T to allow a secondary reaction with the anti-PECAM-1 antibody at 4° C. for 12 hours. The sample was washed 6 times for 10 minutes, attached to a slide glass, and thus image of the stained sample was obtained by a Carl Zeiss LSM710 confocal microscope. […] The measured fluorescent density denotes a density of endothelial cells, that is, blood vessels. […]"}, "Tie2": {"system": "Tie2", "test": "Microarray analysis of gene expression in soleus muscle (Tie2)", "format": "in vivo, mouse", "conditions": "middle (15 month-old) and old (20 month-old) mice, 2.0 mg/kg/d for 3 months", "experimental": "(§2) In FIG. 9, a vertical axis denotes an expression amount of VEGF or Tie2 gene (fluorescent intensity: arbitrary unit), and a horizontal axis denotes a mouse subject. […] The microarray analysis was performed by using Agilent's Mouse Oligo Microarray (44K, Agilent Technology). 5 months-old, 15 months-old, and 20 months-old C57BL/6J mice had 2 mg/kg/d of dapsone for 3 months. […] After the 3 months, the 8 months-old, 18 months-old, and 23 months-old mice were anesthetized by injecting Entobar (sodium pentobarbital, 100 mg/kg per body weight), and then soleus muscle taken therefrom for microarray analysis was frozen. Ribonucleic acid was isolated from the muscle and used for the microarray analysis."}, "C57BL/6 mice [2]": {"system": "C57BL/6 mice", "test": "Immunohistochemical assay (anti-PECAM-1) on trachea whole-mount of mouse", "format": "in vivo", "experimental": "as §1\nAfter 3 months, ear skin from both ears, trachea, both retinas, both kidneys, and pancreas were obtained from a mouse selected from each group of mice. In order to obtain these organs, the mouse was anesthetized by intraperitoneal injection of 100 mg/kg of […] (Entobal®) based on the weight of the mouse, […] of 1% paraformaldehyde was flowed through the heart to remove the blood in the body of the mouse. The organs were surgically obtained, and tissue from each of the organs was fixed in 4% of paraformaldehyde for 24 hours to prepare a frozen section having a thickness of 10 um. Immunofluorescence staining using anti-PECAM-1 antibody was performed on a sample of the frozen section. For the immunofluorescence staining, the sample was blocked in a solution containing 5% donkey serum in phosphate buffered solution (PBS) containing 0.3% Triton-X 100 (0.3% PBST) for 1 hour. The anti-PECAM-1 antibody produced from American hamster was added to the solution to allow a primary reaction with antigen of the tissue at 4° C. for 12 hours. The sample was washed 6 times for 10 minutes with 0.3% PBS-T, and an anti-American hamster-Alexa594 antibody was added to 0.3 PBS-T to allow a secondary reaction with the anti-PECAM-1 antibody at 4° C. for 12 hours. The sample was washed 6 times for 10 minutes, attached to a slide glass, and thus image of the stained sample was obtained by a Carl Zeiss LSM710 confocal microscope. Each of the images was sequentially taken with respect to the tissue having a thickness in a range of about 100 um to about 300 um as an axis, and then all the sub-images were projected in a z-axis direction. Thus the image is a projection image. Platelet endothelial cell adhesion molecule (PECAM-1) is also referred to as cluster of differentiation 31 (CD31), which is found in platelets or monocytes and on a surface of some types of T-cells, and constitutes most of endothelial cell intercellular junction. […] The measured fluorescent density denotes a density of endothelial cells, that is, blood vessels. Also, in terms of kidney tissue sections and pancreas tissue section, Fluorescein labeled Lycopersicon esculentum (tomato) lectin (hereinafter, also referred to as “Fluorescein-lectin”) was used as a tracer to verify blood vessel functionality of the sample. […]"}, "C57BL/6 mice [3]": {"system": "C57BL/6 mice", "test": "Fluorescein-lectin tracking and immunohistochemical assay on kidney section", "format": "in vivo, mouse", "conditions": "old mice, 2.0 mg/kg/d for 3 months", "experimental": "as §1\n(§3) After 3 months, ear skin from both ears, trachea, both retinas, both kidneys, and pancreas were obtained from a mouse selected from each group of mice. In order to obtain these organs, the mouse was anesthetized by intraperitoneal injection of 100 mg/kg of […] (Entobal®) based on the weight of the mouse, […] of 1% paraformaldehyde was flowed through the heart to remove the blood in the body of the mouse. The organs were surgically obtained, and tissue from each of the organs was fixed in 4% of paraformaldehyde for 24 hours to prepare a frozen section having a thickness of 10 um. Immunofluorescence staining using anti-PECAM-1 antibody was performed on a sample of the frozen section. […] The measured fluorescent density denotes a density of endothelial cells, that is, blood vessels. […]"}, "VEGFR2": {"system": "VEGFR2", "test": "Phosphorylation-specific antibody array of soleus muscle protein", "format": "in vivo, mouse", "conditions": "20 month-old C57BL/6J mice, 2.0 mg/kg/d for 3 months", "experimental": "In FIG. 10, a vertical axis denotes the amount of protein expressed in the experimental group compared to the control group (fluorescent intensity: arbitrary unit), and a horizontal axis denotes the type of phosphorylated protein measured, where the description in parentheses informs residue and location of the phosphorylated amino acid. […] The microarray analysis was performed by using a Phospho Explorer Antibody array (1312 antibodies, FULL MOON Biosystems), soleus muscle of the mice was obtained, protein was isolated therefrom, and used for the microarray analysis. In FIG. 10, p-VR1 and p-VR2 respectively denote phosphorylated VEGFR1 and VEGFR2."}, "VEGF": {"system": "VEGF", "test": "Microarray analysis of gene expression in soleus muscle (VEGF)", "format": "in vivo, mouse", "conditions": "middle (15 month-old) and old (20 month-old) mice, 2.0 mg/kg/d for 3 months", "experimental": "as §2"}, "C57BL/6 mice [4]": {"system": "C57BL/6 mice", "test": "Fluorescein-lectin tracking and immunohistochemical assay on pancreas section", "format": "in vivo, mouse", "conditions": "old mice, 2.0 mg/kg/d for 3 months", "experimental": "as §1, §3"}, "[5]": {"conditions": "old mice (27 months-old), 2.0 mg/kg/d for 3 months (O2 vs O0)"}}}
{"smiles": "Nc1ccc(S(=O)(=O)c2ccc(N)cc2)cc1", "note": "[dapsone, 4-[(4-aminobenzene)sulfonyl]aniline]", "values": [{"measurement": "blood vessel density (PECAM-1 Alexa 594 fluorescence intensity) vs control group", "setting": "C57BL/6 mice [1]; [5]", "value": "significant difference"}, {"measurement": "blood vessel density (PECAM-1 Alexa 594 fluorescence intensity) vs control group", "setting": "C57BL/6 mice [1]; young mice (7 months-old), 0.5 mg/kg/d for 3 months (Y0.5 vs Y0)", "value": "no significant difference"}, {"measurement": "blood vessel density (PECAM-1 Alexa 594 fluorescence intensity) vs control group", "setting": "C57BL/6 mice [1]; young mice (7 months-old), 2.0 mg/kg/d for 3 months (Y2 vs Y0)", "value": "no significant difference"}, {"measurement": "level of Tie2 gene expression vs control groups", "setting": "Tie2", "value": "did not change significantly"}, {"measurement": "blood vessel density (PECAM-1 Alexa 594 fluorescence intensity) vs control group", "setting": "C57BL/6 mice [2]; old mice (27 months-old), 0.5 mg/kg/d for 3 months (O0.5 vs O0)", "value": "significant difference"}, {"measurement": "blood vessel density (PECAM-1 Alexa 594 fluorescence intensity) vs control group", "setting": "C57BL/6 mice [2]; [5]", "value": "significant difference"}, {"measurement": "blood vessel density (PECAM-1 Alexa 594 fluorescence intensity) vs control group", "setting": "C57BL/6 mice [2]; young mice (7 months-old), 0.5 mg/kg/d in drinking water for 3 months (Y0.5 vs Y0)", "value": "no significant difference"}, {"measurement": "blood vessel density (PECAM-1 Alexa 594 fluorescence intensity) vs control group", "setting": "C57BL/6 mice [2]; young mice (7 months-old), 2.0 mg/kg/d in drinking water for 3 months (Y2 vs Y0)", "value": "no significant difference"}, {"measurement": "blood vessel functionality (Fluorescein-lectin perfusion of PECAM-1 positive vessels)", "setting": "C57BL/6 mice [3]", "value": "recovered to the similar level of the control group"}, {"measurement": "phosphorylation of VEGFR2 at T1175, T1059 and T1054 vs control group", "setting": "VEGFR2", "value": "significantly increased phosphorylation"}, {"measurement": "expression of VEGF gene vs control groups", "setting": "VEGF", "value": "increased"}, {"measurement": "amount of blood vessels with decreased functionality (Fluorescein-lectin negative)", "setting": "C57BL/6 mice [4]", "value": "reduced"}]}
